Laboratory results taken from US12171884B2, “Mesoporous silica nanoparticles with lipid bilayer coating for cargo delivery” (priority 2016, dated 2024).
Entries after “also recorded” stand apart in the source; their conditions may differ. Counter-ions that a name gives are not always drawn.

Assays:
PDAC = PDAC patients; cited from earlier work
[1] = human, in vivo; cited from earlier work
[2] = Bone marrow toxicity and differential white cell count; type: in vivo, mice; conditions: 40 mg/kg IV x3, 2 days apart; listed as free drug, hydrochloride trihydrate
Description: Bone marrow toxicity was studied in a separate experiment, in which animals received three injections of a 40 mg/kg irinotecan dose equivalent, as described above. After sacrifice, sternal bone marrow was collected to evaluate myelotoxicity by H&E staining (FIG. 4D) (Iusuf et al. (2014) Mol. Cancer Ther. 13: 492-503).

BxPC-3 cells = test: MTS cytotoxicity assay; type: cell-based; conditions: BxPC3, incremental irinotecan concentrations, 24-72 hours
[3] = Maximum tolerated dose (NCI protocol); conditions: male, BALB/c, mouse, in vivo; Example 1; healthy mice, IV, validated in six mice over 15 days
Description: . Two healthy male BALB/c mice were IV injected with a 50 mg/kg (C1 dose) equivalent of free or encapsulated irinotecan. This was followed by a dose escalation factor of 1.8 to obtain the Cn dose, which results in animal death within 24 h after the last administration. The second round of dose-seeking began with the Cn-1 dose and utilized a 1.15 escalation factor (n=2) to find the MTD, which is defined as the absence of mortality or morbidity. The MTD was validated by injecting six mice, which were followed for 15 days to determine the absence of morbidity, mortality, or >15% weight loss.
. Two healthy male BALB/c mice were IV injected with 50 mg/kg (C1 dose) free or encapsulated drug. We then used a dose escalation factor of 1.8 to determine the Cn dose where both animals (n=2) died within 24 hours. After treatment with free or encapsulated irinotecan. The second round of dose-seeking began with Cn-1 dose, and utilized a 1.15 escalation factor (n=2) to find the MTD, where there was no mortality or serious morbidity. The MTD was further validated by injecting […], and following them for 15 days to ascertain that there was no morbidity, mortality or […]. […].

[4] = Acute histological analysis after single IV dose (Example 2); conditions: 60 mg/kg single IV, 24 hours; for kidney histology: hydrochloride trihydrate
[5] = system: KPC-derived orthotopic tumors; test: Efficacy assessment in KPC-derived orthotopic model; conditions: 40 mg/kg IV every 4 days
[6] = Liver and intestinal toxicity (H&E, cleaved caspase-3 IHC); conditions: animals of efficacy study, 40 mg/kg every 4 days
PANC-1 cells = test: MTS cytotoxicity assay; type: cell-based; conditions: PANC-1, incremental irinotecan concentrations, 24-72 hours
[7] = system: KPC-derived orthotopic tumor; conditions: mouse, in vivo
Source text: This stringent PDAC tumor model mimics human PDAC for oncogene expression, growth characteristics, metastasis, histological features and development of a dysplastic stroma. […] Imaging intensity was quantified by IVIS Lumina Living Image software.

[8] = system: patient-derived PDAC xenograft XWR #187; conditions: mouse, in vivo, 50 mg/kg

Compound: Nc1ccn([C@@H]2O[C@H](CO)[C@@H](O)C2(F)F)c(=O)n1 [GEM, gemcitabine]
- response rate (PDAC): 9.4%
- survival (PDAC): 6.8 months

Compound: CCc1c2c(nc3ccc(OC(=O)N4CCC(N5CCCCC5)CC4)cc13)-c1cc3c(c(=O)n1C2)COC(=O)[C@]3(O)CC [free irinotecan, Irinotecan hydrochloride trihydrate]
- G.I.T. adverse effects (vomiting, diarrhea, nausea, anorexia) [1]: ~50 % of patients
- incidence of neutropenia [1]: ~60%
- peripheral blood neutrophil count [2]: significant decrease of the absolute neutrophil count; also recorded: peripheral blood neutropenia
- cell killing (MTS) (BxPC-3 cells): more effective in killing over 24 hours
- MTD at 15 days [3]: 60 mg/kg
- bone marrow toxicity (H&E histology) [4]: Severe bone marrow damage and apoptosis
- kidney histology ([4]; listed as Free irinotecan): nephrotoxicity
- kidney histology ([4]; listed as free IRIN): swelling and edema of Bowman's space
- effect on metastasis (ex vivo bioluminescence) [5]: failed to affect metastasis
- liver histology (H&E) [6]: severe and extensive hepatocyte necrosis
- cell killing (MTS) (PANC-1 cells): more effective in killing over 24 hours

Compound: N=C(N)NCCC[C@@H]1NC(=O)[C@@H](N)CSSC[C@@H](C(=O)O)NC(=O)[C@H](CC(=O)O)NC(=O)[C@@H]2CCCN2C(=O)CNC(=O)[C@H](CCCCN)NC(=O)[C@H](CC(=O)O)NC(=O)CNC1=O [iRGD]
- enhancement of silicasome uptake at orthotopic tumor site by co-administration [7]: 3-4 fold
- intratumoral particle abundance and traveling distance from blood vessels [7]: most effective strategy to enhance silicasome uptake
- increase of NIR intensity at the tumor site [8]: 50%

Compound: FOLFIRINOX
- response rate (PDAC): 31.6%
- survival (PDAC): ~11 months
